From US20250163057A1, “DCN-1 MODULATING COMPOUNDS AND METHODS OF USE THEREOF” (Cellarity, Inc., priority 2023, published 2025)
Where two headings read alike, the source gives them in different places.

Key:
[1] = test system: Cullin-3 (CUL3) neddylation; assay: AlphaLISA assay for Cullin-3 (CUL3) neddylation in TF 1 cells; type: cell-based; details: Homo sapiens, TF-1, 3 h, 3 hours treatment
Experimental: An AiphaLISA assay was performed to evaluate the ability of the compounds to suppress neddylation, which is downstream from DCN-1 and DCN-2. A stronger inhibition of DCN-1 and DCN-2 is expected to result in a suppression of neddylation as shown by a lower AlphaLISA signal. The AlphaLISA assay for detecting Cullin-3 (CUL3) neddylation was performed according to manufacturer instructions (Revvity, Hopkinton, MA). Briefly, TF 1 cells (ATCC) were plated in Iscove's Modified Dulbecco's Medium (IMIDM) without supplements in 384-well plates. These cells were treated with […] for 3 hours before lysing them with AlphaLISA lysis buffer, 5× (Revvity). To detect the level of CUL3 neddylation, biotinylated anti-NEDD8 antibody, was added followed by AlphaLISA Acceptor beads conjugated with anti-CUL3 antibody. After overnight incubation, Streptavidin-coated Alpha Donor beads were added and incubated for 1 hour. The AlphaLISA signal was then read on a VICTOR Nivo Multimode Microplate Reader (Revvity, Hopkinton, MA). The positive control was 1 μM DI-1548, which is reported to reduce CUL3 neddylation, also referred to as C-1 in Example 41 (Zhou et al. Nature Comm. 2021). The neddylation signal was normalized such that the percent inhibition is 0% for vehicle control and 100% for positive control. The dose-response curves were fitted with the Hill equation to obtain IC50 values (Graphpad Prism).

[2] = molecular target: DCN1 (DCUND1) protein PONY domain (Homo sapiens (Human), UniProt Q96GG9); assay: TR-FRET assay, DCN1 binding with FAM-labeled probe
Method in brief: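 Biotinylated DCN1 PONY domain, labeled with streptavidin-Tb, was competed against a FAM-labeled non-covalent DCN1 inhibitor probe in buffer with TritonX and 200 mM NaCl. Conditions were 5 nM DCN1 with 20 nM FAM-probe, or 0.31 nM DCN1 with 100 nM FAM-plus 800 nM unlabeled probe. The TR-FRET ratio was read at 1, 5 and 24 h (0.1% DMSO).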

[3] = 24 hr after treatment with compound, read-out: TR FRET IC50 24 hr
[4] = TR FRET IC50 1 hr (nM), 1 hr after treatment with compound
[5] = read-out: TR FRET IC50 1 hr, 1 hr after treatment with compound

DCN1 (DCUND1) protein PONY domain, sequence (Q96GG9 60-248): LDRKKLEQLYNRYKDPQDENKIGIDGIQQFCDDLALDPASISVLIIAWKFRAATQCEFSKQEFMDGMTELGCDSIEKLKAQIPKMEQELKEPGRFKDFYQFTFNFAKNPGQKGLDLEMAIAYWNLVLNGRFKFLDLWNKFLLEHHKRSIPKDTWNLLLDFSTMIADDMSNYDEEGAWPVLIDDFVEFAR

Compound	IC50 [1] [µM]	IC50 [2, 3] [nM]	IC50 [2, 4] [nM]	IC50 [2, 5] [nM]
CCN1C(=O)[C@@H](NC(=O)c2cnc(C)cc2Cl)[C@@H](C2CC2)c2c(C(=O)N3[C@H](C#N)C[C@H]4C[C@H]43)nn(C3CCOCC3)c21 [Compound I-506]	> 1	1000 to 3000	1000 to 3000	–
CCN1C(=O)[C@H](NC(=O)c2cccc(C(F)(F)F)c2)[C@H](c2ccc(F)cc2)c2c(C(=O)N3CCC[C@H]3C#N)nn(C3CCOCC3)c21 [Compound I-401]	> 1	1000 to 3000	1000 to 3000	–
CCCn1nc(C(=O)N2CCC[C@H]2C#N)c2c1N(CC)C(=O)[C@@H](NC(=O)c1cccc(C(F)(F)F)c1)[C@H]2c1ccc(F)cc1 [Compound I-428]	≤ 0.1	≤ 200	200 to 1000	–
CCN1C(=O)[C@@H](NC(=O)c2cccc(C(F)(F)F)c2)[C@@H](c2ccc(F)nc2)c2c(C(=O)N3CCC[C@H]3C#N)nn(C3CC3)c21 (mixture of isomers) [Compound I-585]	0.1 to 1	≤ 200	1000 to 3000	–
CCN1C(=O)[C@@H](NC(=O)c2cccc(C(F)(F)F)c2)[C@@H](C2CC2)c2c(C(=O)N3CCNC[C@@H]3C#N)nn(-c3ccccc3)c21 (single isomer, unassigned) [Compound I-518]	≤ 0.1	≤ 200	200 to 1000	–
CCN1C(=O)[C@H](NC(=O)c2cccc(C(F)(F)F)c2)[C@H](c2ccc(F)cc2)c2c(C(=O)N[C@@H](C)C#N)nn(-c3ccccc3)c21 [Compound I-255, (4R,5R)—N—((S)-1-cyanoethyl)-7-ethyl-4-(4-fluorophenyl)-6-oxo-1-phenyl-5-(3-(trifluoromethyl)benzamido)-4,5,6,7-tetrahydro-1H-pyrazolo[3,4-b]pyridine-3-carboxamide]	> 1	1000 to 3000	1000 to 3000	–
CCN1C(=O)[C@@H](NC(=O)c2nccc(C(F)(F)F)n2)[C@H](c2ccc(F)cc2)c2c(CC(=O)N[C@H](C)C#N)nn(-c3ccccc3)c21 (single isomer, unassigned) [Compound I-607]	> 1	1000 to 3000	200 to 1000	–
CCN1C(=O)[C@@H](NC(=O)c2cccc(C(F)(F)F)c2)[C@@H](c2ccc(F)cc2)c2c(C(C)=O)nn(-c3ccccc3)c21 (racemic) [Compound I-649]	> 1	1000 to 3000	1000 to 3000	–
C=C(CN1CC2CC(C1)O2)C(=O)NCc1nn(-c2ccccc2)c2c1[C@H](c1ccc(F)cc1)[C@H](NC(=O)c1cccc(C(F)(F)F)c1)C(=O)N2CC [Compound I-56]	≤ 0.1	≤ 200	–	≤ 200
C=CC(=O)N[C@H](C)c1nn(-c2ccccc2)c2c1[C@H](c1ccc(F)cc1)[C@@H](NC(=O)c1nccc(C(F)(F)F)n1)C(=O)N2CC [Compound I-605]	> 1	1000 to 3000	1000 to 3000	–
CCN1C(=O)[C@@H](NC(=O)c2cccc(C(F)(F)F)c2)[C@@H](c2ccc(F)cc2)c2c(C(=O)N3[C@H](C#N)C[C@@H]4C[C@@H]43)nn(-c3ccccc3)c21 [Compound I-450]	0.1 to 1	1000 to 3000	1000 to 3000	–
CCCn1nc(C(=O)N(CC#N)C2CC2)c2c1N(CC)C(=O)[C@H](NC(=O)c1cccc(C(F)(F)F)c1)[C@@H]2C1CC1 [Compound I-455]	> 1	1000 to 3000	1000 to 3000	–
CCN1C(=O)[C@H](NC(=O)c2cccc(C(F)(F)F)c2)[C@H](c2ccc(F)cc2)c2c(C(=O)N(CC#N)C3CC3)nn(C3CCOCC3)c21 [Compound I-414]	> 1	1000 to 3000	1000 to 3000	–
CCN1C(=O)[C@@H](NC(=O)c2cccc(C(F)(F)F)c2)[C@@H](C2CC2)c2c(C(=O)N3[C@H](C)CC[C@H]3C#N)nn(C3CCOCC3)c21 [Compound I-621]	> 1	1000 to 3000	1000 to 3000	–
CCN1C(=O)[C@H](NC(=O)c2cccc(C(F)(F)F)c2)[C@H](C2CC2)c2c(C(=O)N3CCC[C@H]3C#N)nn(C3CCOCC3)c21 [Compound I-666]	> 1	1000 to 3000	1000 to 3000	–
CCN1C(=O)[C@H](NC(=O)c2cccc(C(F)(F)F)c2)[C@H](c2ccc(F)cc2)c2c(C(=O)N3[C@H](C#N)C[C@H]4C[C@H]43)nn(-c3ccccc3)c21 [Compound I-541]	> 1	1000 to 3000	1000 to 3000	–
CCCn1nc(C(=O)N2CCC[C@H]2C#N)c2c1N(CC)C(=O)[C@H](NC(=O)c1cccc(C(F)(F)F)c1)[C@@H]2c1ccc(F)cc1 [Compound I-479]	> 1	1000 to 3000	1000 to 3000	–
CCN1C(=O)[C@H](NC(=O)c2cccc(C(F)(F)F)c2)[C@H](c2ccc(F)cn2)c2c([C@@H](C)NC#N)nn(-c3ccccc3)c21 [Compound I-525]	> 1	1000 to 3000	1000 to 3000	–
CCN1C(=O)[C@@H](NC(=O)c2cccc(C(F)(F)F)c2)[C@@H](c2ccc(F)cc2)c2c(CN(C#N)CCCN(C)C3COC3)nn(-c3ccccc3)c21 [Compound I-646]	≤ 0.1	≤ 200	–	≤ 200
CCN1C(=O)[C@@H](NC(=O)c2cccc(C(F)(F)F)c2)[C@@H](c2ccc(F)cc2)c2c(C(=O)N(C)[C@H](C#N)CCN(C)C3COC3)nn(C3CCOCC3)c21 [Compound I-470]	≤ 0.1	≤ 200	–	≤ 200
COCCN1C(=O)[C@@H](NC(=O)c2cccc(C(F)(F)F)c2)[C@@H](C2CC2)c2c(C(=O)N3[C@H](C#N)C[C@H]4C[C@H]43)nn(C3CCOCC3)c21 [Compound I-474]	0.1 to 1	200 to 1000	1000 to 3000	–
CCN1C(=O)[C@@H](NC(=O)[C@@H]2CCN(Cc3ccccc3)C2)[C@@H](C2CC2)c2c(C(=O)N3[C@H](C#N)C[C@H]4C[C@H]43)nn(C3CCOCC3)c21 [Compound I-634]	> 1	1000 to 3000	1000 to 3000	–
CCN1C(=O)[C@@H](NC(=O)c2cccc(C(F)(F)F)c2)[C@@H](c2ccc(F)cc2)c2c(COCC#N)nn(-c3ccccc3)c21 [Compound I-685]	0.1 to 1	≤ 200	–	≤ 200
CCN1C(=O)[C@@H](NC(=O)c2cccc(C(F)(F)F)c2)[C@@H](c2ccc(F)cc2)c2c(CN(C)C/C=C/C(=O)N(C)C)nn(-c3ccccc3)c21 [Compound I-638]	> 1	≤ 200	–	≤ 200
CCN1C(=O)[C@@H](NC(=O)c2cccc(C(F)(F)F)c2)[C@@H](C2CC2)c2c(C(=O)N3CCC=C3C#N)nn(C3CCOCC3)c21 [Compound I-437]	> 1	≤ 200	1000 to 3000	–
CCN1C(=O)[C@@H](NC(=O)c2cccc(C(F)(F)F)c2)[C@@H](c2ccc(F)cc2)c2c([C@@H](CCC(O)CO)NC#N)nn(-c3ccccc3)c21 (stereo partly drawn) [Compound I-497]	≤ 0.1	≤ 200	–	≤ 200
CCN1C(=O)[C@@H](NC(=O)c2cccc(C(F)(F)F)c2)[C@@H](C2CC2)c2c(C(=O)N(C)[C@H](C#N)CCN(C)C)nn(C3CCOCC3)c21 [Compound I-589]	≤ 0.1	≤ 200	–	≤ 200
CCN1C(=O)[C@@H](NC(=O)CCc2ccccc2)[C@@H](C2CC2)c2c(C(=O)N3[C@H](C#N)C[C@H]4C[C@H]43)nn(C3CCOCC3)c21 [Compound I-476]	> 1	1000 to 3000	1000 to 3000	–
CCN1C(=O)[C@@H](NC(=O)c2cccc(C(F)(F)F)c2)[C@@H](C2CC2)c2c(C(=O)N3C[C@@H](NC)C[C@H]3C#N)nn(C3CCOCC3)c21 [Compound I-503, N-((4S,5S)-3-((2S,4S)-2-cyano-4-(methylamino)pyrrolidine-1-carbonyl)-4-cyclopropyl-7-ethyl-6-oxo-1-(tetrahydro-2H-pyran-4-yl)-4,5,6,7-tetrahydro-1H-pyrazolo[3,4-b]pyridin-5-yl)-3-(trifluoromethyl)benzamide]	> 1	200 to 1000	1000 to 3000	–
CCN1C(=O)C(NC(=O)c2cccc(C(F)(F)F)c2)[C@@H](C2CC2)c2c(C(=O)N3CC(NC)CC3C#N)nn(C3CCOCC3)c21 (stereo in doubt) [Compound I-420, N-[(4S,5S)-3-[(2S,4R*)-2-cyano-4-(methylamino)pyrrolidine-1-carbonyl]-4-cyclopropyl-7-ethyl-1-(oxan-4-yl)-6-oxo-4H,5H-pyrazolo[3,4-b]pyridin-5-yl]-3-(trifluoromethyl)benzamide]	> 1	1000 to 3000	1000 to 3000	–
